The NIST ThermoML archive (doi:10.1021/je034177v)
± gives the expanded uncertainty stated by the source.

Assay: molar heat capacity at constant pressure; xn = mol fraction of the nth substance listed
Details: 101 kPa, Liquid, Small sample (50 mg) DSC

ClCCCCCCl [1,5-dichloropentane] + CCCCCCCCCCCC
molar heat capacity at constant pressure [J/K/mol]
Details	283.15 K	288.15 K	293.15 K	298.15 K	303.15 K	308.15 K	313.15 K	318.15 K	323.15 K
x1 = 0.05237	359.49 ± 5.6	361.46 ± 5.6	363.6 ± 5.6	365.89 ± 5.7	368.28 ± 5.7	370.79 ± 5.7	373.41 ± 5.8	376.07 ± 5.8	378.83 ± 5.9
x1 = 0.1014	351.13 ± 5.4	353.16 ± 5.5	355.31 ± 5.5	357.53 ± 5.5	359.81 ± 5.6	362.28 ± 5.6	364.84 ± 5.7	367.48 ± 5.7	370.16 ± 5.7
x1 = 0.2008	334.84 ± 5.2	336.79 ± 5.2	338.81 ± 5.2	340.93 ± 5.3	343.08 ± 5.3	345.47 ± 5.3	347.87 ± 5.4	350.35 ± 5.4	352.88 ± 5.5
x1 = 0.3039	318.47 ± 4.9	320.33 ± 5	322.17 ± 5	324.17 ± 5	326.18 ± 5	328.38 ± 5.1	330.63 ± 5.1	332.93 ± 5.2	335.27 ± 5.2
x1 = 0.3945	304.32 ± 4.7	305.98 ± 4.7	307.85 ± 4.8	309.6 ± 4.8	311.52 ± 4.8	313.55 ± 4.9	315.68 ± 4.9	317.86 ± 4.9	320.07 ± 5
x1 = 0.4983	288.13 ± 4.5	289.64 ± 4.5	291.34 ± 4.5	293.02 ± 4.5	294.78 ± 4.6	296.69 ± 4.6	298.58 ± 4.6	300.38 ± 4.7	302.59 ± 4.7
x1 = 0.6014	271.74 ± 4.2	273.2 ± 4.2	274.79 ± 4.3	276.35 ± 4.3	277.97 ± 4.3	279.71 ± 4.3	281.49 ± 4.4	283.32 ± 4.4	285.18 ± 4.4
x1 = 0.6987	256.4 ± 4	257.78 ± 4	259.23 ± 4	260.76 ± 4	262.21 ± 4.1	263.83 ± 4.1	265.47 ± 4.1	267.13 ± 4.1	268.85 ± 4.2
x1 = 0.7975	240.83 ± 3.7	242.08 ± 3.8	243.45 ± 3.8	244.78 ± 3.8	246.18 ± 3.8	247.69 ± 3.8	249.17 ± 3.9	250.73 ± 3.9	252.27 ± 3.9
x1 = 0.9021	224.47 ± 3.5	225.7 ± 3.5	226.92 ± 3.5	228.16 ± 3.5	229.39 ± 3.5	230.74 ± 3.6	232.08 ± 3.6	233.47 ± 3.6	234.85 ± 3.6
x1 = 0.9497	217.25 ± 3.4	218.41 ± 3.4	219.54 ± 3.4	220.73 ± 3.4	221.9 ± 3.4	223.14 ± 3.5	224.4 ± 3.5	225.7 ± 3.5	227.02 ± 3.5
x1 = 1	209.65 ± 3.2	210.73 ± 3.3	211.89 ± 3.3	212.94 ± 3.3	214.06 ± 3.3	215.21 ± 3.3	216.38 ± 3.4	217.56 ± 3.4	218.76 ± 3.4

ClCCCCCCCl [1,6-dichlorohexane] + CCCCCCCCCCCC
molar heat capacity at constant pressure [J/K/mol]
Details	283.15 K	288.15 K	293.15 K	298.15 K	303.15 K	308.15 K	313.15 K	318.15 K	323.15 K
x1 = 0.0498	361.24 ± 5.6	363.25 ± 5.6	365.49 ± 5.7	367.75 ± 5.7	370.17 ± 5.7	372.73 ± 5.8	375.36 ± 5.8	378.07 ± 5.9	380.85 ± 5.9
x1 = 0.1003	354.21 ± 5.5	356.2 ± 5.5	358.37 ± 5.5	360.64 ± 5.6	363.07 ± 5.6	365.53 ± 5.7	368.13 ± 5.7	370.69 ± 5.7	373.37 ± 5.8
x1 = 0.1497	347.4 ± 5.4	349.35 ± 5.4	351.58 ± 5.5	353.74 ± 5.5	356.06 ± 5.5	358.52 ± 5.5	361.02 ± 5.6	363.62 ± 5.6	366.28 ± 5.7
x1 = 0.2527	333.57 ± 5.2	335.52 ± 5.2	337.63 ± 5.2	339.74 ± 5.3	341.93 ± 5.3	344.27 ± 5.3	346.63 ± 5.4	349.13 ± 5.4	351.62 ± 5.5
x1 = 0.4017	314.16 ± 4.9	315.92 ± 4.9	317.89 ± 4.9	319.79 ± 5	321.84 ± 5	323.95 ± 5	326.16 ± 5	328.4 ± 5.1	330.71 ± 5.1
x1 = 0.502	301.12 ± 4.7	302.83 ± 4.7	304.61 ± 4.7	306.46 ± 4.8	308.39 ± 4.8	310.38 ± 4.8	312.43 ± 4.8	314.57 ± 4.9	316.72 ± 4.9
x1 = 0.6	288.34 ± 4.5	289.93 ± 4.5	291.62 ± 4.5	293.38 ± 4.5	295.19 ± 4.6	297.07 ± 4.6	299.01 ± 4.6	300.97 ± 4.7	303.01 ± 4.7
x1 = 0.7011	275.07 ± 4.3	276.6 ± 4.3	278.22 ± 4.3	279.86 ± 4.3	281.55 ± 4.4	283.34 ± 4.4	285.15 ± 4.4	287 ± 4.5	288.89 ± 4.5
x1 = 0.7986	262.36 ± 4.1	263.83 ± 4.1	265.4 ± 4.1	266.9 ± 4.1	268.5 ± 4.2	270.16 ± 4.2	271.87 ± 4.2	273.6 ± 4.2	275.38 ± 4.3
x1 = 0.8998	249.37 ± 3.9	250.76 ± 3.9	252.22 ± 3.9	253.67 ± 3.9	255.12 ± 4	256.63 ± 4	258.18 ± 4	259.77 ± 4	261.42 ± 4
x1 = 0.9493	242.86 ± 3.8	244.24 ± 3.8	245.67 ± 3.8	247.09 ± 3.8	248.51 ± 3.9	249.99 ± 3.9	251.5 ± 3.9	253.03 ± 3.9	254.57 ± 3.9
x1 = 0.9691	240.39 ± 3.7	241.75 ± 3.8	243.14 ± 3.8	244.52 ± 3.8	245.9 ± 3.8	247.38 ± 3.8	248.85 ± 3.9	250.37 ± 3.9	251.9 ± 3.9
x1 = 1	236.59 ± 3.7	237.9 ± 3.7	239.26 ± 3.7	240.6 ± 3.7	241.94 ± 3.8	243.37 ± 3.8	244.81 ± 3.8	246.28 ± 3.8	247.76 ± 3.8
